Measured values taken from ChEMBL document CHEMBL3885861, “Open TG-GATES”.

Species on record: Rattus norvegicus
Experiment: Open TG-GATES - Regimen: Single
Type: toxicity, organism-based, Sprague-Dawley
Set-up: regimen Single, gender Male, age 6 weeks
Conditions: in vivo, po, 0 mg/kg, route gavage, dose level Control; for APTT / Bas / Eos / Fbg / Hb / Ht / Lym / MCH / MCHC / MCV / Mono / Neu / PT / Plat / RBC / Ret / WBC: tissue Blood; for KIDNEY_L / KIDNEY_R / KIDNEY_TOTAL: tissue Kidney; for LIVER: tissue Liver; for A/G / ALP / ALT / AST / BUN / CRE / Ca / Cl / DBIL / GLC / IP / K / LDH / Na / PL / RALB / TBIL / TC / TG / TP / gamma-GTP: tissue Plasma

## CC(CN1c2ccccc2Sc2ccccc21)N(C)C (configuration not stated) [PROMETHAZINE]
3 h
  TERMINAL_BW: 213.5 g
  APTT: 22.4 s
  Bas: 0%
  Eos: 0.8%
  Fbg: 333.6 mg/dL
  Hb: 13 g/dL
  Ht: 39.9%
  Lym: 81.4%
  MCH: 20.6 pg
  MCHC: 32.6%
  MCV: 63.4 fL
  Mono: 2.4%
  Neu: 15.2%
  PT: 16.4 s
  Plat: 117.1 x10_4/uL
  RBC: 629.4 x10_4/ul
  Ret: 8.5%
  WBC: 94.5 x10_2/uL
  KIDNEY_L: 0.9 g
  KIDNEY_R: 1 g
  KIDNEY_TOTAL: 1.9 g
  LIVER: 9.9 g
  A/G: 1.2
  ALP: 1819.4 IU/L
  ALT: 42.8 IU/L
  AST: 76 IU/L
  BUN: 12.8 mg/dL
  CRE: 0.2 mg/dL
  Ca: 10.9 mg/dL
  Cl: 105.8 meq/L
  DBIL: 0 mg/dL
  GLC: 190.4 mg/dL
  IP: 8.1 mg/dL
  K: 4.4 meq/L
  LDH: 234.4 IU/L
  Na: 142.2 meq/L
  PL: 134.2 mg/dL
  RALB: 3 g/dL
  TBIL: 0.016 mg/dL
  TC: 75 mg/dL
  TG: 64.2 mg/dL
  TP: 5.5 g/dL
  gamma-GTP: 1.2 IU/L
6 h
  TERMINAL_BW: 210.9 g
  APTT: 22.7 s
  Bas: 0%
  Eos: 1%
  Fbg: 310.8 mg/dL
  Hb: 13.3 g/dL
  Ht: 39.9%
  Lym: 82.6%
  MCH: 20.9 pg
  MCHC: 33.4%
  MCV: 62.5 fL
  Mono: 2.4%
  Neu: 13.6%
  PT: 16.7 s
  Plat: 111.7 x10_4/uL
  RBC: 639.6 x10_4/ul
  Ret: 7.3%
  WBC: 81.5 x10_2/uL
  KIDNEY_L: 1 g
  KIDNEY_R: 1 g
  KIDNEY_TOTAL: 2 g
  LIVER: 8.7 g
  A/G: 1.3
  ALP: 1393.4 IU/L
  ALT: 41.4 IU/L
  AST: 76.2 IU/L
  BUN: 11.2 mg/dL
  CRE: 0.2 mg/dL
  Ca: 10.9 mg/dL
  Cl: 104.8 meq/L
  DBIL: 0 mg/dL
  GLC: 186.2 mg/dL
  IP: 9.4 mg/dL
  K: 4.3 meq/L
  LDH: 208.2 IU/L
  Na: 141.2 meq/L
  PL: 133.8 mg/dL
  RALB: 3 g/dL
  TBIL: 0.018 mg/dL
  TC: 83.2 mg/dL
  TG: 53 mg/dL
  TP: 5.4 g/dL
  gamma-GTP: 1.8 IU/L
9 h
  TERMINAL_BW: 207.6 g
  APTT: 22.2 s
  Bas: 0%
  Eos: 0.8%
  Fbg: 318.8 mg/dL
  Hb: 13.1 g/dL
  Ht: 40.1%
  Lym: 80%
  MCH: 20.8 pg
  MCHC: 32.6%
  MCV: 64 fL
  Mono: 3%
  Neu: 15.6%
  PT: 16.7 s
  Plat: 123.9 x10_4/uL
  RBC: 627.6 x10_4/ul
  Ret: 8.1%
  WBC: 107.3 x10_2/uL
  KIDNEY_L: 1 g
  KIDNEY_R: 1 g
  KIDNEY_TOTAL: 1.9 g
  LIVER: 8.7 g
  A/G: 1.2
  ALP: 1357.2 IU/L
  ALT: 38.8 IU/L
  AST: 68 IU/L
  BUN: 12.4 mg/dL
  CRE: 0.2 mg/dL
  Ca: 10.6 mg/dL
  Cl: 104.6 meq/L
  DBIL: 0.004 mg/dL
  GLC: 191.2 mg/dL
  IP: 10 mg/dL
  K: 4.5 meq/L
  LDH: 237.8 IU/L
  Na: 140.4 meq/L
  PL: 125.8 mg/dL
  RALB: 3 g/dL
  TBIL: 0.016 mg/dL
  TC: 73.2 mg/dL
  TG: 55 mg/dL
  TP: 5.4 g/dL
  gamma-GTP: 1.2 IU/L
24 h
  TERMINAL_BW: 222 g
  APTT: 22.1 s
  Bas: 0%
  Eos: 0.8%
  Fbg: 326.8 mg/dL
  Hb: 13.5 g/dL
  Ht: 40.2%
  Lym: 81.6%
  MCH: 20.8 pg
  MCHC: 33.5%
  MCV: 62.2 fL
  Mono: 2%
  Neu: 14.8%
  PT: 17 s
  Plat: 131.7 x10_4/uL
  RBC: 647.6 x10_4/ul
  Ret: 7.2%
  WBC: 130.1 x10_2/uL
  KIDNEY_L: 1 g
  KIDNEY_R: 1 g
  KIDNEY_TOTAL: 2 g
  LIVER: 10.5 g
  A/G: 1.3
  ALP: 1690.8 IU/L
  ALT: 44.2 IU/L
  AST: 73.2 IU/L
  BUN: 15.8 mg/dL
  CRE: 0.2 mg/dL
  Ca: 11 mg/dL
  Cl: 106.6 meq/L
  DBIL: 0 mg/dL
  GLC: 192.6 mg/dL
  IP: 7.2 mg/dL
  K: 4.4 meq/L
  LDH: 180.6 IU/L
  Na: 142.4 meq/L
  PL: 141.4 mg/dL
  RALB: 3.1 g/dL
  TBIL: 0.004 mg/dL
  TC: 74.4 mg/dL
  TG: 95.8 mg/dL
  TP: 5.5 g/dL
  gamma-GTP: 1.4 IU/L
